Measured values from patent EP4241843B1, “ALCOHOL DERIVATIVES AS KV7 POTASSIUM CHANNEL OPENERS” (H. Lundbeck A/S, priority 2018, dated 2019).

Assays:
[1] = target: T1, HEK-hKv7.2/hKv7.3 cells (Homo sapiens, UniProt O43525+O43526); experiment: Thallium influx assay for potassium channel activation; assay type: cell-based; conditions: AUC as readout, normalized to a reference compound
T1 construct: P2A self-cleaving peptide between the two subunits (remnant after ribosomal skipping); expressed in transfected cells
Procedure: (§1) A synthesized cDNA fragment encoding human Kv7.3 and human Kv7.2 separated by a P2A sequence was inserted into the pcDNA5/FRT/TO vector using the BamHI and XhoI restriction sites. The construct was then transfected into HEK Flp-In 293 cells using Lipofectamine2000. The transfected cells were grown for 48 hours in DMEM containing 10% (v/v) FBS and 1% PenStrep and subsequently maintained under selection in DMEM containing 10% (v/v) FBS, 1 % PenStrep and 200 ug/mL Hygromycin B at 37°C in a humidified atmosphere of 5% CO2.
The thallium influx assay for potassium channel activation was performed analogously to a published procedure (C.D. Weaver, et al., J Biomol Screen 2004, 9, 671-677) using the FLIPR Potassium Assay kit (Molecular Devices). HEK-hKv7.2/hKv7.3 cells were plated onto 96-well, black-walled, clear-bottomed culture plates (Corning, Acton, MA, USA) at a density of 80,000 cells/well (100 µl/well) if the cells were assayed the following day, or 40,000 cells/well (100 µl/well) if the cells were assayed two days after seeding.
On the assay day, the medium was removed after which 50 uL/well of test compound diluted to 2x final concentration in HBSS containing 20 mM HEPES, and 50 uL/well of 2x dye load buffer were added. The cells were then incubated for 60 min at room temperature in the dark. Chloride-free stimulation buffer containing Tl^+ and K^+ at 5x final concentration (5x concentration: 5 mM in both cases) and test compound at 1x final concentration, were prepared during the incubation. The cells were then assayed in a FDSS7000EX Functional Drug Screening System (Hamamatsu). Following 60 sec of baseline fluorescence signal reading at 0.1 Hz, and 10 sec at 1 Hz, 25 uL/well of stimulation buffer were added and the fluorescence continuously measured for 50 sec at 1 Hz followed, by 4 min at 0.1 Hz. Compound effect was quantified using AUC as readout and normalized to a reference compound, which was included on each plate.

[2] = target: T2, hKv7.2/hKv7.3 cell line (HEK-hKv7.2/hKv7.3) (Homo sapiens, UniProt O43525+O43526); experiment: Automated whole cell patch-clamp functional test of the stable cell line; assay type: cell-based; conditions: stable HEK-hKv7.2/hKv7.3 cell line
T2 construct: P2A self-cleaving peptide between the two subunits (remnant after ribosomal skipping); expressed in transfected cells
Procedure: as §1

T1 sequence (O43525 whole entry): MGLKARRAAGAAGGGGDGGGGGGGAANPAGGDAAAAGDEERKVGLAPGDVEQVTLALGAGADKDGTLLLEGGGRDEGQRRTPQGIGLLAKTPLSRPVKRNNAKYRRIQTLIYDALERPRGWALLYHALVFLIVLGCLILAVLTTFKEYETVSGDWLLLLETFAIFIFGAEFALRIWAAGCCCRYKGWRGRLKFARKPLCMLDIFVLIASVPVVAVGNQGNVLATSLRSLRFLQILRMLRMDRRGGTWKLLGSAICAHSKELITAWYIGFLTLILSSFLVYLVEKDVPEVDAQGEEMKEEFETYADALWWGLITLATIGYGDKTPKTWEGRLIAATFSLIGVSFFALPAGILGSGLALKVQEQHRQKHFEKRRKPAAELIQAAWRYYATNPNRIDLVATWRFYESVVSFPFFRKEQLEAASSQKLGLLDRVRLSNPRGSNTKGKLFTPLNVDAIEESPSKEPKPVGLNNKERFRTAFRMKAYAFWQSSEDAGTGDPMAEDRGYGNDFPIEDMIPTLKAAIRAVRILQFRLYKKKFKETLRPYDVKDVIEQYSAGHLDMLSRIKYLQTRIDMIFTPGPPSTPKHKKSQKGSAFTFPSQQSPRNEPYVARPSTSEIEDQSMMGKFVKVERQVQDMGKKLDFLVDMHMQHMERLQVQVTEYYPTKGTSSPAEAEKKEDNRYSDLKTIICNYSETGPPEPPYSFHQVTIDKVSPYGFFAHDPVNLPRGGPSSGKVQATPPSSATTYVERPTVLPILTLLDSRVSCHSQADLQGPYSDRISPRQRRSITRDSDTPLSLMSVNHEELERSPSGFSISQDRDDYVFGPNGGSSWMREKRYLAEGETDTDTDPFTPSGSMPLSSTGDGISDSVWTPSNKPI
T1 sequence (O43526 whole entry): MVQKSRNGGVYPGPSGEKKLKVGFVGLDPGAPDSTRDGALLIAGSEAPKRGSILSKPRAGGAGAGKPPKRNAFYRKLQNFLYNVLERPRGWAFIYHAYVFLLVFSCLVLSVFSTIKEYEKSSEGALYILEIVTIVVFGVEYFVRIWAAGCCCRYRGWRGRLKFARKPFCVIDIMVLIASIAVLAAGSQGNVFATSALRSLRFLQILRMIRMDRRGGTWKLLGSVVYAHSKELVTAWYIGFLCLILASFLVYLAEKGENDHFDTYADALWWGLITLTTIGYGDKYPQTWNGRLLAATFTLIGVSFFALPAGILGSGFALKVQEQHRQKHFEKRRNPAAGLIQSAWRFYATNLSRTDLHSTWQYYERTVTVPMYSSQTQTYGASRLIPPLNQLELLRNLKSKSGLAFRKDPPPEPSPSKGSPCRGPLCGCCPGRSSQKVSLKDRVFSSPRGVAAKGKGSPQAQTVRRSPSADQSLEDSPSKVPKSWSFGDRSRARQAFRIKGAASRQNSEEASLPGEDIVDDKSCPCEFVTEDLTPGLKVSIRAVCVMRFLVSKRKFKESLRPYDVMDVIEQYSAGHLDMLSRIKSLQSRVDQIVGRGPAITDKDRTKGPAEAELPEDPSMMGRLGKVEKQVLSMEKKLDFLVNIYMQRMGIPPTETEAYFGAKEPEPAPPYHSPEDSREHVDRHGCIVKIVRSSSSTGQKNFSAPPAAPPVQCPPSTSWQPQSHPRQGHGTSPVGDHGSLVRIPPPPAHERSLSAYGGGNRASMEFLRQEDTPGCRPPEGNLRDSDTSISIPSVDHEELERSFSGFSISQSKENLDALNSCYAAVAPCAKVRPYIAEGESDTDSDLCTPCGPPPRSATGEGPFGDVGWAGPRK
T2 sequence (O43525 whole entry): as the sequence (O43525 whole entry) above
T2 sequence (O43526 whole entry): as the sequence (O43526 whole entry) above

Q: How did the EC50 [1] turn out when `C[C@H](NC(=O)CC(O)C1CC(F)(F)C1)c1cccc(OC(F)(F)F)c1` (stereo in doubt) [Example 11a, 3-(3,3-Difluorocyclobutyl)-3-hydroxy-N-((S)-1-(3-(trifluoromethoxy)phenyl)ethyl)propanamide] was run?
A: 1500 nM

Q: `C[C@H](NC(=O)C[C@H](O)C(C)(C)C)c1cccc(OC(F)(F)F)c1` [Example 1a, (S)-3-Hydroxy-4,4-dimethyl-N-((S)-1-(3-(trifluoromethoxy)phenyl)ethyl)pentanamide] was tested. Which EC50 [1] did it give?
A: 680 nM

Q: For `C[C@H](NC(=O)C[C@@H](O)C(C)(C)C)c1cccc(OC(F)(F)F)c1` [Example 1b, (R)-3-Hydroxy-4,4-dimethyl-N-[(1S)-1-[3-(trifluoromethoxy)phenyl]ethyl]pentanamide], which EC50 [1] is on record?
A: 3300 nM

Q: `C[C@H](NC(=O)CC1(O)CC(F)(F)C1)c1cccc(OC(F)(F)F)c1` [Example 5, (S)-2-(3,3-difluoro-1-hydroxycyclobutyl)-N-(1-(3-(trifluoromethoxy)phenyl)ethyl)acetamide] was tested. Which EC50 [1] did it give?
A: 1800 nM

Q: `C[C@H](NC(=O)CC1(O)CCC1)c1cccc(OCC(F)(F)F)c1` [Example 6, (S)-2-(1-Hydroxycyclobutyl)-N-(1-(3-(2,2,2-trifluoroethoxy)phenyl)ethyl) acetamide] was tested. Which EC50 [1] did it give?
A: 3000 nM

Q: Which EC50 [1] does the source give for `C[C@H](NC(=O)CC(O)(C(F)(F)F)C(F)(F)F)c1cccc(OC(F)(F)F)c1` [Example 9, 4,4,4-Trifluoro-3-hydroxy-N-[(1S)-1-[3-(trifluoro-methoxy)phenyl]ethyl]-3-(trifluoromethyl)butanamide] here?
A: 560 nM

Q: For `COC[C@H](NC(=O)CC1(O)CCCC1)c1cccc(OC(F)(F)F)c1` [Example 17, (R)-2-(1-Hydroxycyclopentyl)-N-(2-methoxy-1-(3-(trifluoromethoxy)phenyl)ethyl) acetamide], which EC50 [1] is on record?
A: 2500 nM

Q: Which “effect on Kv7-current” value [2] does the source give for `CCOC(=O)Nc1ccc(NCc2ccc(F)cc2)cc1N` [Retigabine, N-(2-amino-4-(4-fluorobenzylamino)-phenyl) carbamic acid ethyl ester] here?
A: potentiated

Q: How did the “effect on Kv7-current” value [2] turn out when `O=C1c2ccccc2C(Cc2ccncc2)(Cc2ccncc2)c2ccccc21` [XE991] was run?
A: sensitive
